The target in data set [1] is T1, Coagulation factor X (Homo sapiens, UniProt P00742). As to the kind of experiment: Concentration required for inhibition of Coagulation factor X.
Data set [2] can be described thus: Oral bioavailability in rat. The data set is classed as ADME, organism-based. The note with it: in vivo.
A short description of data set [3]: Plasma clearance in rats. Type of data set: ADME, organism-based. The following applies: rat.
Data set [4] is described as follows: Volume distribution in rats. Type of data set: ADME, organism-based. The note with it: rat, in vivo; read-out: Vz.
A short description of data set [5]: Half life in rats in hours. Type of data set: ADME, organism-based. The following applies: rat, in vivo.
A short description of data set [6]: Half life in dogs in hours. Type of data set: ADME, organism-based, Canis lupus familiaris. The following applies: dog, in vivo.
Data set [7] can be described thus: Plasma clearance in dogs. Type of data set: ADME, organism-based, Canis lupus familiaris. The following applies: dog.
Data set [8] can be described thus: Volume distribution in dogs. The data set is classed as ADME, organism-based, Canis lupus familiaris. The note with it: dog, in vivo; read-out: Vz.
Data set [9] can be described thus: Oral bioavailability in dog. The data set is classed as ADME, organism-based, Canis lupus familiaris. The following applies: in vivo.
The species entered for another data set is Oryctolagus cuniculus. As to the kind of experiment: Antithrombotic activity was evaluated by using rabbit PT assay. Type of data set: functional.
A further data set deals with Prothrombin (Homo sapiens, UniProt P00734). As to the kind of experiment: Concentration required for inhibition of Coagulation factor II.
In data set [10] the target is T1, Coagulation factor X. As to the kind of experiment: Binding affinity towards Coagulation factor X.
For the next data set, the target named is Serine protease 1 (Homo sapiens, UniProt P07477). As to the kind of experiment: Concentration required for inhibition of trypsin.
Chain of Serine protease 1 (P07477 whole entry): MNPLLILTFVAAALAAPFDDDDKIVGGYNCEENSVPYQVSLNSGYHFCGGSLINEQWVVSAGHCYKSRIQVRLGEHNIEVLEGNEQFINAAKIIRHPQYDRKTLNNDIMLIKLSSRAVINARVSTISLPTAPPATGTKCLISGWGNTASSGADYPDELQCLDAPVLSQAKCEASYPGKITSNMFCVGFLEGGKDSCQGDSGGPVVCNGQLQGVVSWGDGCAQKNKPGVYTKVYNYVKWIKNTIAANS
Data set [11] is described as follows: Oral bioavailability in ratrs. Type of data set: ADME, organism-based. The following applies: rat, in vivo.

T1 sequence (P00742 41-179 limits assumed): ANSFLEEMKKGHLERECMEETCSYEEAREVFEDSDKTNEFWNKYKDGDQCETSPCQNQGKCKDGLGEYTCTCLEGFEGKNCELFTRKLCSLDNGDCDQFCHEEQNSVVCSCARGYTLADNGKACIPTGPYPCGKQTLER
T1 sequence (P00742 235-488 limits assumed): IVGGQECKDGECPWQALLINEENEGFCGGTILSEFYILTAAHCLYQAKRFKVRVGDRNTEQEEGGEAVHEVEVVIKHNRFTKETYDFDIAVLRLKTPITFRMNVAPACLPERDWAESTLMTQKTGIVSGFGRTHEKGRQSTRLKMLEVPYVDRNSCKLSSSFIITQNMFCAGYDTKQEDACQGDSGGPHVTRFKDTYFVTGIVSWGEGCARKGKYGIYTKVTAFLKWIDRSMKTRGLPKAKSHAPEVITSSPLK

In the case of `C/C(=C(\F)C(=O)Nc1ccc(-c2ccccc2S(N)(=O)=O)cc1Br)c1cc(Br)ccc1N`, the IC50 on Coagulation factor X [1] is > 11000 nM.
As for `C/C(=C(\F)C(=O)Nc1ccc(-c2ccccc2S(N)(=O)=O)cn1)c1ccc2ccnc(N)c2c1`, the bioavailability in data set [2] is 13%. The molecule also had a clearance in data set [3] of 19.1 mL/min/kg. Besides, half-maximal inhibition against Coagulation factor X [1] (IC50) required 14 nM. In addition, the Vd in [4] was 2.7 L/kg. For the same molecule, the half-life in [5] is 1.64 h.
Take `C/C(=C(\F)C(=O)Nc1ccc(-c2ccccc2S(N)(=O)=O)cc1)c1cccc(N)c1`: the IC50 at Coagulation factor X [1] was > 11000 nM.
`C/C(=C(/F)C(=O)Nc1ccc(-c2ccccc2S(N)(=O)=O)cc1)c1ccc2nc(N)nc(N)c2c1`: at Coagulation factor X [1], the IC50 is > 11000 nM.
Turning to `C/C(=C(\F)C(=O)Nc1ccc(-c2ccccc2S(N)(=O)=O)cc1)c1ccc2ccnc(N)c2c1`, the figures for the half-life in data set [6] and in data set [5] were 7.1 h and 2.38 h, respectively. Further, the bioavailability in [2] worked out at 6.8%; in data set [9] it was 36.7%. The results for the clearance in data set [3] and in [7] were 48.7 mL/min/kg and 11.4 mL/min/kg, respectively. Besides, the IC50 on Coagulation factor X [1] is 14 nM. Besides, the results for the Vd in [4] and in data set [8] were 10 L/kg and 6.8 L/kg, respectively.
At Coagulation factor X [1], `C/C(=C(\F)C(=O)Nc1ccc(-c2ccccc2S(N)(=O)=O)cc1F)c1cccc(C(=N)S)c1` registered an IC50 of 140 nM.
The molecule `C/C(=C(/F)C(=O)Nc1ccc(-c2ccccc2S(N)(=O)=O)cc1)c1ccc2ncnc(N)c2c1` yielded an IC50 at Coagulation factor X [1] of 270 nM. This IC50 lies about 1.9-fold higher than the previous one.
Still for that read-out and setting: the same measure for `C/C(=C(\F)C(=O)Nc1ccc(-c2ccccc2S(N)(=O)=O)cc1)c1cc(Cl)ccc1C#N`: 9500 nM; for `C/C(=C(\F)C(=O)Nc1ccc(-c2ccncc2S(C)(=O)=O)cc1)c1ccc2ccnc(N)c2c1`: 7 nM.
Still for that read-out and setting: as for `C/C(=C(\F)C(=O)Nc1ccc(-c2ccccc2C#N)cc1)c1ccc2ccnc(N)c2c1`, the figure is 190 nM.
`C/C(=C(\F)C(=O)Nc1ccc(-c2ccccc2S(N)(=O)=O)cc1F)c1ccc2ccnc(N)c2c1` displayed a bioavailability in data set [2] of 13.5%. Besides, the clearance in data set [3] was found to be 25.3 mL/min/kg. Further, the IC50 worked out at 5 nM against Coagulation factor X [1], 6300 nM against Prothrombin and 9700 nM on Serine protease 1. Moreover, the Vd in data set [4] worked out at 3.7 L/kg. This molecule returned an Activity in the data set listed under Oryctolagus cuniculus of 6.3 µM. Also, in data set [5], the half-life was 1.7 h. The molecule further showed a Ki on Coagulation factor X [10] of 1.6 nM.
`C/C(=C(/F)C(=O)Nc1ccc(-c2ccccc2S(N)(=O)=O)cc1)c1ccc2ccnc(N)c2c1` came in with an IC50 on Coagulation factor X [1] of 880 nM.
`COc1ccc(/C(C)=C(/F)C(=O)Nc2ccc(-c3ccccc3S(N)(=O)=O)cc2)c(C#N)c1` had an IC50 on Coagulation factor X [1] of 5700 nM.
The molecule `Nc1nccc2ccc(/C=C\C(=O)Nc3ccc(-c4ccccc4S(N)(=O)=O)cc3)cc12` displayed a bioavailability in data set [2] of 1.5%. The molecule further showed a clearance in data set [3] of 56.4 mL/min/kg. This molecule came in with an IC50 against Coagulation factor X [1] of 78 nM. For the same molecule, the Vd in [4] was 7.4 L/kg. Moreover, the half-life in data set [5] is 1.51 h.
As for `C/C(Cc1ccc(Br)cc1)=C(\F)C(=O)Nc1ccc(-c2ccccc2S(N)(=O)=O)cc1`, the IC50 against Coagulation factor X [1] came out at 1800 nM.
With `C/C(=C(\F)C(=O)Nc1ccc(-c2ccccc2S(N)(=O)=O)cc1Cl)c1ccc2ccnc(N)c2c1`, the bioavailability in data set [11] is 35.1%. Besides, in data set [3], the clearance was found to be 6.7 mL/min/kg. The half-inhibitory concentration (IC50) at Coagulation factor X [1] is 11 nM; at Prothrombin, 5400 nM; against Serine protease 1 it was > 11000 nM. The Vd in data set [4] came out at 0.8 L/kg. Moreover, in the data set filed under Oryctolagus cuniculus, the Activity is 9.4 µM. In data set [5], the half-life is 1.43 h. At Coagulation factor X [10], the inhibitory constant (Ki) was 1.1 nM.
As to `C/C(=C(\F)C(=O)Nc1ccc(-c2ccccc2S(N)(=O)=O)cc1Br)c1cc(Br)ccc1[N+](=O)[O-]`, it took 2900 nM to reach half-maximal inhibition on Coagulation factor X [1] (IC50).
On to `C/C(=C(\F)C(=O)Nc1ccc(-c2ccccc2S(N)(=O)=O)cc1Br)c1ccc2ccnc(N)c2c1`, for which the half-life was 6 h in data set [6] and 1.6 h in data set [5]. The bioavailability in data set [2] was found to be 30.1%; in data set [9] it was 33.1%. The clearance in data set [3] came to 4.4 mL/min/kg; in [7], 10.8 mL/min/kg. Moreover, the IC50 was 7 nM on Coagulation factor X [1], 4800 nM at Prothrombin and 2400 nM against Serine protease 1. For the same molecule, the Vd in data set [4] stood at 0.61 L/kg; in data set [8], 5.5 L/kg. In the data set listed under Oryctolagus cuniculus, the Activity stood at 10.3 µM. For the same molecule, at Coagulation factor X [10], the inhibitory constant (Ki) was 1.3 nM.
Molecule `C/C(=C(\F)C(=O)Nc1ccc(-c2ccccc2S(N)(=O)=O)cc1)c1cccc(C(N)=O)c1` returned an IC50 on Coagulation factor X [1] of 920 nM.
Same read-out and setting: the same measure for `C/C(=C(\F)C(=O)Nc1ccc(-c2ccncc2[S+](C)[O-])cc1F)c1ccc2ccnc(N)c2c1` (configuration not stated): 1500 nM; for `C/C(=C(\F)C(=O)Nc1ccc(-c2ccccc2S(N)(=O)=O)cc1)c1cccc(NN)c1`: > 11000 nM; for `C/C(=C(\F)C(=O)Nc1ccc(-c2ccccc2S(N)(=O)=O)cc1)c1cc(N)ccc1[N+](=O)[O-]`: 250 nM.
Still for that read-out and setting: as for `C/C(=C(\F)C(=O)Nc1ccc(-c2ccnc(C(N)=O)c2)cc1)c1ccc2ccnc(N)c2c1`, the figure is 180 nM.

Source of the values: ChEMBL document CHEMBL1134849, “Substituted acrylamides as factor Xa inhibitors: improving bioavailability by P1 modification” (Bioorg Med Chem Lett, 2002).
